Patent US4044134A, “Fused pyrimidin-4(3H)-ones as antiallergy agents” (Pfizer Inc., priority 1976, dated 1977)
Read-outs that look alike come from different tables or passages of the source.

How the values were obtained:
bronchi = conditions: in vivo; cited from earlier work
[1] = test system: passive cutaneous anaphylaxis (PCA) reaction; experiment: passive cutaneous anaphylaxis (PCA) test, i.v. or oral administration; type: in vivo, male Charles River Wistar rats
Method: In the PCA test, normal animals are injected intradermally (i.d.) with antibodies contained in serum obtained from actively sensitized animals. The animals are then challenged intravenously with antigen mixed with a dye such as Evans' Blue. The increased capillary-permeability caused by the antigen-antibody reaction causes the dye to leak from the site of the antibody injection. The test animals are then asphyxiated and the intensity of the reaction determined by measuring the diameter and intensity of the blue coloration on the inner surface of the animals skin. […] The ability of agents to interfere with PCA reactions is measured in male Charles River Wistar rats, 170-210 g. […] Hyperimmune antisera to hen egg albumin is prepared according to Orange, et al., J. Exptl. […] Forty-eight hours prior to antigen challenge the reaginic antisera is injected intradermally (i.d.) into the shaved skin of a normal rat's back; 5 hours before challenge the hyperimmune antisera is similarly injected; 5 hours later, at a third site, 60 mcg. histamine dihydrochloride is injected i.d. as a check for antihistaminic and unspecific types of blockage; the compounds of the instant invention or saline are then administered i.v. and immediately followed by 2.5 mg. Evan's blue dye and 5 mg. egg albumin in saline. In the case of oral administration Evan's blue dye and egg albumen are given five minutes after administration of the drug. Thirty minutes later the animals are asphyxiated using chloroform and the skin of the back removed and reversed for observation. A score is assigned each injection site equal to the product of the diameter of the site in mm. and a grade of 0.1, 0.5, 1, 2, 3 or 4 proportional to intensity of dye coloration. The scores for a given injection site are summed for each group of 8 animals and compared to the saline treated controls. The difference is expressed as percent blockade due to the compound employed. […] Disodium cromoglycate, a commerial antiallergy agent, is included for comparison. [drawing 3]

[2] = hypotension and bradycardia in dogs; type: in vivo
[3] = intravenous toxicity in mice
PCA reaction = PCA reaction test after aerosol administration (nebulizer); type: in vivo, rats
bronchial asthma = conditions: in vivo; cited from earlier work
[4] = Rattus norvegicus, iv, I.V., read-out: degree (%) of protection, PCA test
[5] = Rattus norvegicus, iv, I.V., 0.03 mg/kg, read-out: degree (%) of protection, PCA test
[6] = Rattus norvegicus, Oral, read-out: degree (%) of protection, PCA test

Cn1c(=O)c2[nH]cnc2n(C)c1=O [theophylline]
bronchodilator activity (bronchi): generally less potent than the sympathomimetic amines such as isoproterenol and solbutamol, and are ineffective in aerosol administration

CN[C@@H](C)[C@H](O)c1ccccc1 [ephedrine]
bronchodilator activity (bronchi): orally efficacious bronchodilator

CNC[C@H](O)c1ccc(O)c(O)c1 [epinephrine]
bronchodilator activity (bronchi): bronchodilator effects

O=c1[nH]cnc2cc3ccccc3cc12 [Benzo[g]quinazolin-4(3H)-one, reference compound]
bronchodilator activity (bronchi): active as a bronchodilator
inhibition in vivo at 3 mg/kg [1, 4]: 31%

CCOC(=O)c1nc2nc3cc(OC)c(OC)cc3cc2c(=O)[nH]1 [COOC2 H5/H/H/OCH3/OCH3/H, Ethyl 7,8-dimethoxypyrimido[4,5-b]quinolin-4(3H)-one-2-carboxylate]
hypotension and bradycardia [2]: marked but transient hypotension and bradycardia
inhibition in vivo at 0.003 mg/kg [1, 4]: 36%
inhibition in vivo at 0.01 mg/kg [1, 4]: 70%
inhibition in vivo at 0.03 mg/kg [1, 5]: 75%
inhibition in vivo at 0.1 mg/kg [1, 4]: 90%
inhibition in vivo at 0.3 mg/kg [1, 4]: 90%
inhibition in vivo at 1 mg/kg [1, 4]: 100%
minimal effective dose ([1]; Rattus norvegicus, iv, read-out: intravenously active at a level as low as): 3 µg/kg
inhibition in vivo at 0.03 mg/kg ([1]; Rattus norvegicus, Oral, 0.03 mg/kg (so in the source), read-out: degree (%) of protection, PCA test): 30%
inhibition in vivo at 1 mg/kg [1, 6]: 51%
inhibition in vivo at 3 mg/kg [1, 6]: 75%
inhibition in vivo at 10 mg/kg [1, 6]: 80%
routes of administration by which active ([1]; rat, in vivo): active via the oral, intravenous, intraperitoneal and inhalation routes of administration
intravenous dose that did not cause death in mice ([3]; intravenous, mice): 1000 mg/kg
toxicity ([3]; mouse, in vivo): relatively free of toxicity
concentration of solutions giving concentration related responses by aerosol (PCA reaction): 0.3 to 30 mg/mL

O=C(O)c1cc(=O)c2c(OCC(O)COc3cccc4oc(C(=O)O)cc(=O)c34)cccc2o1 [Disodium chromoglycate, 1,3-bis-(2-carboxychromon-5-yloxy)-2-hydroxypropane, reference compound]
bronchodilator activity (bronchi): not a bronchodilator
efficacy by route of administration (bronchial asthma): lack of oral efficacy
inhibition in vivo at 0.1 mg/kg [1, 4]: 19%
inhibition in vivo at 0.3 mg/kg [1, 4]: 29%
inhibition in vivo at 1 mg/kg [1, 4]: 56%
inhibition in vivo at 3 mg/kg [1, 4]: 78%
inhibition in vivo at 10 mg/kg [1, 4]: 89%
inhibition in vivo at 30 mg/kg [1, 4]: 99%
inhibition in vivo at 100 mg/kg [1, 4]: 100%
inhibition in vivo at 100 mg/kg [1, 6]: 0%

CC(C)(C)NCC(O)c1ccc(O)c(CO)c1 (centres unmarked) [solbutamol]
bronchodilator activity (bronchi): potent bronchodilator of prolonged duration, and active via both oral and aerosol administration

CCOC(=O)c1nc2nc3ccc(SC)cc3cc2c(=O)[nH]1 [COOC2 H5/H/H/SCH3/H/H, Ethyl 7-Methylthiopyrimido[4,5-b]quinolin-4(3H)-One-2-Carboxylate]
inhibition in vivo at 0.03 mg/kg [1, 5]: 8%
inhibition in vivo at 0.3 mg/kg [1, 4]: 91%
inhibition in vivo at 3 mg/kg [1, 4]: 88%
inhibition in vivo at 1 mg/kg [1, 6]: 0%
inhibition in vivo at 3 mg/kg [1, 6]: 21%
inhibition in vivo at 10 mg/kg [1, 6]: 66%
inhibition in vivo at 30 mg/kg [1, 6]: 100%

CCOC(=O)c1nc2nc3ccc(Cl)cc3cc2c(=O)[nH]1 [COOC2 H5/H/H/Cl/H/H, Ethyl 7-Chloropyrimido[4,5-b]quinolin-4(3H)-one-2-carboxylate]
inhibition in vivo at 0.03 mg/kg [1, 5]: 0%
inhibition in vivo at 1 mg/kg [1, 4]: 70%

CC(C)NCC(O)c1ccc(O)c(O)c1 (centres unmarked) [isoproterenol]
bronchodilator activity (bronchi): potent aerosol bronchodilator

CCOC(=O)c1nc2nc3ccc(F)cc3cc2c(=O)[nH]1 [COOC2 H5/H/H/F/H/H, Ethyl 7-fluoropyrimido[4,5-b]quinolin-4(3H)-one-2-carboxylate]
inhibition in vivo at 0.03 mg/kg [1, 5]: 0%
inhibition in vivo at 1 mg/kg [1, 4]: 90%
inhibition in vivo at 3 mg/kg [1, 4]: 82%
inhibition in vivo at 30 mg/kg [1, 6]: 17%

NC(=O)c1nc2nc3ccccc3cc2c(=O)[nH]1 [CONH2/H/H/H/H/H, Pyrimido[4,5-b]Quinolin-4(3H)-One-2-Carboxamide]
inhibition in vivo at 3 mg/kg [1, 4]: 98%
inhibition in vivo at 60 mg/kg ([1]; Rattus norvegicus, Oral, 60 mg/kg, read-out: degree (%) of protection, PCA test): 23%

O=C(O)c1nc2nc3ccc(O)cc3cc2c(=O)[nH]1 [COOH/H/H/OH/H/H, 7-hydroxypyrimido[4,5-b]quinolin-4(3H)one-2-carboxylic acid]
inhibition in vivo at 0.003 mg/kg [1, 4]: 4%
inhibition in vivo at 0.03 mg/kg [1, 5]: 91%
inhibition in vivo at 3 mg/kg [1, 4]: 100%

COc1cc2cc3c(=O)[nH]c(C(N)=O)nc3nc2cc1OC [CONH2/H/H/OCH3/OCH3/H, 7,8-Dimethoxypyrimido[4,5-b]Quinolin-4(3H)-One-2-Carboxamide]
inhibition in vivo at 3 mg/kg [1, 4]: 87%
inhibition in vivo at 30 mg/kg [1, 6]: 4%

CCOC(=O)c1nc2nc3c(OC)ccc(OC)c3cc2c(=O)[nH]1 [COOC2 H5/H/OCH3/H/H/OCH3]
inhibition in vivo at 0.03 mg/kg [1, 5]: 0%
inhibition in vivo at 0.3 mg/kg [1, 4]: 25%
inhibition in vivo at 3 mg/kg [1, 4]: 100%
inhibition in vivo at 30 mg/kg [1, 6]: 23%

CCOC(=O)c1nc2ncccc2c(=O)[nH]1 [OC2 H5/H/H/H (Formula III), Ethyl Pyrido[2,3-d]Pyrimidin-4(3H)-One-2-Carboxylate]
inhibition in vivo at 10 mg/kg [1, 4]: 95%
inhibition in vivo at 100 mg/kg [1, 6]: 0%

CCOC(=O)c1nc2nc3cc(OC)ccc3cc2c(=O)[nH]1 [COOC2 H5/H/H/H/OCH3/H]
inhibition in vivo at 0.03 mg/kg [1, 5]: 0%
inhibition in vivo at 0.3 mg/kg [1, 4]: 20%
inhibition in vivo at 3 mg/kg [1, 4]: 90%
inhibition in vivo at 10 mg/kg [1, 6]: 43%

CCOC(=O)c1nc2nc3cc4c(cc3cc2c(=O)[nH]1)OCO4 [COOC2 H5/H/H/--O--CH2 --O--, Ethyl 7,8-Methylenedioxypyrimido[4,5-b]Quinolin-4(3H)-One-2-Carboxylate]
inhibition in vivo at 0.1 mg/kg [1, 4]: 0%
inhibition in vivo at 1 mg/kg [1, 4]: 70%
inhibition in vivo at 30 mg/kg [1, 6]: 0%

CCOC(=O)c1nc2nc3ccccc3c(-c3ccccc3)c2c(=O)[nH]1 [COOC2 H5/C6 H5/H/H/H/H, Ethyl 5-Phenylpyrimido[4,5-b]Quinolin-4(3H)-One-2-Carboxylate]
inhibition in vivo at 0.1 mg/kg [1, 4]: 9%
inhibition in vivo at 0.3 mg/kg [1, 4]: 51%
inhibition in vivo at 1 mg/kg [1, 4]: 95%
inhibition in vivo at 3 mg/kg [1, 4]: 100%
inhibition in vivo at 1 mg/kg [1, 6]: 0%
inhibition in vivo at 10 mg/kg [1, 6]: 0%

COc1cc2cc3c(=O)[nH]c(C)nc3nc2cc1OC [CH3/H/H/OCH3/OCH3/H, 2-Methyl-7,8-Dimethoxypyrimido[4,5-b]Quinolin-4(3H)-One]
inhibition in vivo at 0.03 mg/kg [1, 5]: 11%
inhibition in vivo at 0.3 mg/kg [1, 4]: 45%
inhibition in vivo at 3 mg/kg [1, 4]: 77%
inhibition in vivo at 1 mg/kg [1, 6]: 43%
inhibition in vivo at 3 mg/kg [1, 6]: 67%

COc1cc2nc3nc(C(=O)O)[nH]c(=O)c3cc2cc1O [COOH/H/H/OH/OCH3/H, 7-Hydroxy-8-Methoxypyrimido[4,5-b]Quinolin-4(3H)One-2-Carboxylic Acid]
inhibition in vivo at 0.003 mg/kg [1, 4]: 90%
inhibition in vivo at 0.01 mg/kg [1, 4]: 86%
inhibition in vivo at 3 mg/kg [1, 4]: 100%
